The nature of series [1]: Stability study of the 1 μg/63 μl formulation with 15.2 M phosphoric acid, upright and inverted cans at 40° C. and 75% relative humidity. The settings on record: 15% w/w ethanol, HFA 134a, 15.2 M phosphoric acid 0.001 to 0.0027% w/w, six months. In kind it is physicochemical. As for the experimental part: The formulation of Table 4 (120 actuations/canister, overage of 30 actuations) was filled in aluminum canisters having the internal surface coated with Teflon and fitted with commercial valves having a 63 μl metering chamber. A stability study was carried out by storing the formulation in upright and inverted cans at 40° C. and 75% relative humidity.

Series [2] is described as follows: Stability of the TA 2005 + budesonide HFA 134a composition with phosphoric acid, 40° C. and 75% relative humidity. The series is classed as physicochemical. The settings on record: TA 2005 1 μg + budesonide 200 μg/actuation, phosphoric acid 85% 0.0032 or 0.0064% w/w, 0.15% w/w water, three months. The procedure: Two compositions were tested containing TA 2005 and budesonide as active ingredients and two different concentrations of phosphoric acid.
Volume of the valve: 63 μl; strength: TA 2005 1 μg+budesonide 200 μg/actuation; no. of actuations: 120 (34 overfilling doses).
The two active ingredients in the compositions were stable after three months storage at 40° C. and 75% relative humidity, giving residual percent amounts of at least 95% TA 2005 and about 100% of Budesonide.

The conditions of series [3]: 3.5 μg/50 μl, cited from earlier work.
For series [4] the following is noted: 4 μg per actuation, HCl-stabilised HFA 134a/ethanol solution; stored upright at 5° C.; after nine months; mean of 2 cans; cited from earlier work.
The nature of series [5]: Stability study of 1 μg/63 μl formulations with 0.1M hydrochloric acid, upright cans at 40° C. and 75% relative humidity. The settings on record: 15 w/w ethanol, HFA 134a, three months. In kind it is physicochemical. The procedure:
Two aluminum canisters having the internal surface coated with Teflon and fitted with commercial valves having a 63 μl metering chamber were filled with the following formulations shown in Table 3. A stability study was carried out by storing the formulations in upright cans at 40° C. and 75% relative humidity.

Like-named read-outs stand apart in the source and are kept apart here.

As to `COc1ccc(C[C@@H](C)NC[C@H](O)c2ccc(O)c3[nH]c(=O)ccc23)cc1.Cl` [TA 2005, 8-hydroxy-5-[(1R)-1-hydroxy-2-[[(1R)-2-(4-methoxyphenyl)-1-methylethyl]amino]ethyl]-2(1H)-quinolinone hydrochloride], the “residual percent amount of TA 2005” value in series [1] is on record as “up to 98%”. Further, the residual percent amount result in series [2] was “at least 95%”. Moreover, the “TA 2005 content, per cent nominal drug concentration” value was 100.0 per cent in series [3] (HFA 134a, 12% w/w ethanol, 1.0% w/w isopropyl myristate, 1.0 μl 0.08M HCl per can (apparent pH about 4.8), Initial); 100.0 per cent in series [3] (HFA 134a, 12% w/w ethanol, 1.0% w/w isopropyl myristate, 1.4 μl 0.08M HCl per can (apparent pH about 3.2), Initial); 98.3 per cent in series [3] (1.0 μl 0.08M HCl per can, 50° C., 22 days upright); 99.4 per cent in series [3] (1.0 μl 0.08M HCl per can, 50° C., 83 days upright); 98.2 per cent in series [3] (1.4 μl 0.08M HCl per can, 50° C., 22 days upright); 98.8 per cent in series [3] (1.4 μl 0.08M HCl per can, 50° C., 83 days upright). The “TA 2005 assay” value in series [4] is listed as “higher than 95%”. Further, the “percent amount of TA 2005” value in series [5] (hydrochloric acid 0.1M 0.018 w/w) is reported as 73%; in series [5] (hydrochloric acid 0.1M 0.027 w/w) it was 77%.

The values are drawn from patent US20070025920A1, “Stable Pharmaceutical Solution Formulations for Pressurized Metered Dose Inhalers” (priority 2004, published 2007).
